The values that follow come from patent US8716478B2, “Boron-containing small molecules” (Anacor Pharmaceuticals, Inc., priority 2010, dated 2014).

Test [1] relates to Schistosoma mansoni schistosomula. In words: Schistosoma mansoni schistosomula phenotypic screen. The conditions noted are these: First Set. From the text:
Puerto Rican isolates of S. mansoni using Biomphalaria glabrata snails and golden hamsters as intermediate and definitive hosts, respectively, were maintained and handled in the University of California-San Francisco Sandler Center for Tropical Medicine. Patent B. glabrata snails (6-8 weeks after exposure to 5-10 infectious miracidia) were induced to shed infective larvae (cercariae) under light stimulus into the surrounding water. Cercariae were washed in rounds of ice-cold water and concentrated through and over sieves of varying pore sizes. They were then mechanically sheared (separation of heads from tails) as described in Colley D G, et al. Exp Parasitol 1974, 35:44-51, in ice-cold Incomplete Medium 169 (as described in Basch P F. J Parasitol 1981, 67:179-185, minus FBS and antibiotics) by passing 15 times through a double headed 22-gauge syringe needle connected to two 10 mL syringes. The resulting cercarial heads (schistosomula) were separated from their tails by swirling in a petri dish. Concentrated schistosomula were added to a sterile 1.5 mL centrifuge tube and allowed to settle over ice. Schistosomula were transferred to a sterile environment and washed 4 times in Incomplete Medium 169 prior to plating.
Two sets of screening were performed. In the first set, compounds were screened against schistosomula and observations were made at 24 hours, 2 days, 3 days, 4 days, and 6 days. In the second set, compounds were screened against schistosomula with observations at 24 hours, 2 days, 3 days, and 4 days and adult worms at 7 hours, 24 hours, 4 days, and 6 days.
Plates contain 200 schistosomula/well in […] complete Basch medium and were maintained at 37° C. in a 5% CO2 atmosphere. All compounds were tested in duplicate with at least two experimental replicates. Compounds and control compounds were added to the plates using the Biomek FXp using 96-well disposable tips. Final concentration of DMSO in each well was 0.5%.
A semi-quantitative and controlled nomenclature for phenotypes that can arise as a result of compound insult to both schistosomula and adults was utilized (Abdulla M H, et al., PLoS Negl Trop Dis 2009, 3:e478). Phenotypes were recorded by visual inspection and on a flexible time basis but at least at 24 h and 4 day time-points in the case of large scale screening. […] To help eliminate bias, two screen analysts scored phenotypes ‘blind’ both to knowledge of the contents of each screening plate and the phenotypes scored by his/her colleague. Upon completing their individual assessments, each analyst's ‘hit sheet’ was then compared to derive a ‘consensus hit sheet’. Discrepancies in analysts' hit sheets were re-evaluated under the microscope to eventually make a consensus hit call.
Hyper-coiled and coiled represent a verbal description of the visual phenotype as compared to the DMSO control. The + and ++ and +++ means more of the phenotype which preceded it. The − means less of the phenotype which preceded it. Results

Test [2] deals with TNF-α in peripheral blood mononuclear cells (PBMCs). In words: TNF-α inhibition in LPS-stimulated peripheral blood mononuclear cells. It counts as cell-based. The conditions noted are these: PBMC; PBMCs, LPS 1 μg/mL for 24 h; read-out: Proinflammatory TNF-α IC50. Here is the method: Peripheral blood mononuclear cells (PBMCs) pooled from 10-20 donors were obtained from a local blood bank, ficoll gradient purified, and stored frozen in liquid nitrogen. Cells were thawed and seeded into 96-well plates at 5×10^5 cells/well in RPMI 1640 with 10% heat-inactivated fetal calf serum (MediaTech, Inc, Hearndon, Va., USA), Test articles were evaluated at the indicated concentrations in 150 μL media containing <2% DMSO, final, with stimulant and PBMCs. Cells were stimulated with lipopolysaccharide (LPS, phenol-extract from E. coli, Sigma-Aldrich, St. Louis, Mo.) at 1 μg/mL. Stimulation was with LPS for 24 h to measure TNF-α. Cytokines in supernatants were analyzed with a FACSArray flow cytometer (BD Biosciences, San Jose, Calif., USA) using the BD Cytometric Bead Array (CBA) Flex Set (BD Biosciences). IC50 values were calculated using the four parameter logistic equation.

Another test deals with TNF-α. The test can be described thus: In vivo TNF-α release in LPS treated mice. Further details: species or system Swiss Webster mice. As to the method: In vivo TNF-α release was measured in Swiss Webster mice, 10/group. Animals were dosed via oral gavage with drug 1% CMC suspension. Thirty minutes later LPS, 1.5 mg/kg was administered by intraperitoneal injection. Ninety minutes later animals were sacrificed, blood was collected by exsangination and serum prepared for analysis. TNF-α concentration was assessed by ELISA, non-drug treated animals had TNF-α levels 1000-3000 pg/mL. 6-(1-Hydroxy-1,3-dihydrobenzo[c][1,2]oxaborol-5-yloxy)-2-(2-isopropoxyethoxy)nicotinonitrile (D140) and 6-(1-hydroxy-1,3-dihydrobenzo[c][1,2]oxaborol-5-yloxy)-2-(4-oxopentyloxy)nicotinonitrile (D141) are disclosed in U.S. patent application Ser. No. 12/399,015, filed Mar. 5, 2009.

Molecules are shown by their SMILES.

As to `CCOC(=O)c1ccc(Oc2ccc3c(c2)COB3O)nc1OCC` [Ethyl 2-ethoxy-6-(1-hydroxy-1,3-dihydrobenzo[c][1,2]oxaborol-5-yloxy)nicotinate], in test [1], the “schistosomula phenotype, 24 h” value is listed as “O+”. With `CC(C)OCCOc1nc(Oc2ccc3c(c2)C(C)OB3O)c(Cl)cc1C#N` (stereo not drawn) [Compound D252, 5-Chloro-6-(1-hydroxy-3-methyl-1,3-dihydrobenzo[c][1,2]oxaborol-5-yloxy)-2-(2-isopropoxyethoxy)nicotinonitrile], the IC50 in test [2] is 160 nM.

Take `CC(=O)NCc1ccc(Oc2ccc3c(c2)COB3O)cc1` [N-[4-(1-Hydroxy-1,3-dihydro-benzo[c][1,2]oxaborol-5-yloxy)-benzyl]-acetamide]: in test [1] (day 4), the “schistosomula phenotype, day 4” value was “D (dead)”. Turning to `CC(C)(C)Nc1nc(Oc2ccc3c(c2)COB3O)ccc1C#N` [2-tert-butylamino-6-(1-hydroxy-1,3-dihydro-benzo[c][1,2]oxaborol-5-yloxy)-nicotinonitrile], in test [1], the “schistosomula phenotype, 24 h” value is recorded as “O (overactive)”. On to `CC(=O)OCCOc1nc(Oc2ccc3c(c2)COB3O)ccc1C#N` [6-(1-Hydroxy-1,3-dihydro-benzo[c][1,2]oxaborol-5-yloxy)-2-(acetyloxyethoxy)-nicotinonitrile], for which the “schistosomula phenotype, 24 h” value in test [1] is on record as “O++”. Take `CCOC(=O)c1ccc(Oc2ccc3c(c2)COB3O)c(Oc2cc(C#N)ccn2)c1` [5-[4-Ethoxycarbonyl-2-(4-cyanopyridin-2-yloxy)phenoxy]-1,3-dihydro-1-hydroxy-2,1-benzoxaborole]: in test [1], the “schistosomula phenotype, 24 h” value is given as “O+”.

Consider `N#Cc1cc(Cl)c(Oc2ccc3c(c2)COB3O)nc1OCCCC1(O)CC1` [Compound D233, 5-Chloro-6-(1-hydroxy-1,3-dihydrobenzo[c][1,2]oxaborol-5-yloxy)-2-(3-(1-hydroxycyclopropyl)propoxy)nicotinonitrile], for which, in test [2], the IC50 worked out at 13 nM. As to `N#Cc1ccc(Oc2ccc3c(c2)COB3O)nc1OCC(F)(F)F` [6-(1-Hydroxy-1,3-dihydro-benzo[c][1,2]oxaborol-5-yloxy)-2-(2,2,2-trifluoro-ethoxy)-nicotinonitrile], the “schistosomula phenotype, 24 h” value in test [1] is reported as “O (overactive)”. On to `N#Cc1ccc(Oc2ccc3c(c2)COB3O)nc1NCCO` [6-(1-hydroxy-1,3-dihydro-benzo[c][1,2]oxaborol-5-yloxy)-2-(2-hydroxy-ethylamino)-nicotinonitrile], for which, in test [1], the “schistosomula phenotype, 24 h” value is on record as “O−” and the “schistosomula phenotype, day 6” value was “O+ R”.

Consider `CCCOc1nc(Oc2ccc3c(c2)COB3O)ccc1C#N` [6-(1-Hydroxy-1,3-dihydro-benzo[c][1,2]oxaborol-5-yloxy)-2-propoxy-nicotinonitrile], for which, in test [1], the “schistosomula phenotype, 24 h” value is “O+”.

With `COCCN(C)c1nc(Oc2ccc3c(c2)COB3O)ccc1C#N` [6-(1-hydroxy-1,3-dihydro-benzo[c][1,2]oxaborol-5-yloxy)-2-[(2-methoxy-ethyl)-methyl-amino]-nicotinonitrile], the “schistosomula phenotype, 24 h” value in test [1] was “O+”. In the case of `CC(C)OC(=O)c1ccc(Oc2ccc3c(c2)COB3O)c(F)c1` [5-(2-Fluoro-4-isopropyloxycarbonylphenoxy)-1-hydroxy-2,1-benzoxaborole], the “schistosomula phenotype, day 6” value in test [1] is listed as “O−, R”. Consider `N#Cc1ccc(Oc2ccc3c(c2)COB3O)nc1OCC(F)F` [2-(2,2-Difluoro-ethoxy)-6-(1-hydroxy-1,3-dihydro-benzo[c][1,2]oxaborol-5-yloxy)-nicotinonitrile], for which, in test [1], the “schistosomula phenotype, 24 h” value is on record as “O+”.

Turning to `CCCOC(=O)c1ccc(Oc2ccc3c(c2)COB3O)nc1` [n-Propyl 6-(1-hydroxy-1,3-dihydrobenzo[c][1,2]oxaborol-5-yloxy)nicotinate], the “schistosomula phenotype, 24 h” value in test [1] is on record as “O+”. `O=C(Nc1c(Cl)cncc1Cl)c1ccc(OC(F)F)c(OCC2CC2)c1` [Roflumilast]: the “% Inhibition of TNFa Blood Levels in LPS Treated Mice” value (from here on “% Inhibition of TNFa Blood Levels”) turned out to be 0% with TNF-α (Oral Dose 0.3 mg/kg); 24.9% with TNF-α (Oral Dose 1 mg/kg); 52.5% in the test on TNF-α (Oral Dose 3 mg/kg); 71.5% in the test on TNF-α (Oral Dose 10 mg/kg); 73.5% in the test on TNF-α (Oral Dose 30 mg/kg). Take `C[C@]12C=CC(=O)C=C1CC[C@@H]1[C@@H]2[C@@H](O)C[C@@]2(C)[C@H]1CC[C@]2(O)C(=O)CO` [Prednisolone]: the “% Inhibition of TNFa Blood Levels” value is 16% in the test with TNF-α (Oral Dose 0.01 mg/kg); 54.3% in the test on TNF-α (Oral Dose 0.1 mg/kg); 81.6% with TNF-α (Oral Dose 3 mg/kg); 84.5% with TNF-α (Oral Dose 10 mg/kg); 85.9% in the test on TNF-α (Oral Dose 100 mg/kg). In the case of `N#Cc1ccc(Oc2ccc3c(c2)COB3O)nc1N1CCCC1` [6-(1-Hydroxy-1,3-dihydro-benzo[c][1,2]oxaborol-5-yloxy)-2-pyrrolidin-1-yl-nicotinonitrile], in test [1], the “schistosomula phenotype, 24 h” value is given as “O+”. Still for that read-out and setting: then `COCCNc1ccc(C#N)c(Oc2ccc3c(c2)COB3O)n1` [2-(1-Hydroxy-1,3-dihydro-benzo[c][1,2]oxaborol-5-yloxy)-6-(2-methoxy-ethylamino)-nicotinonitrile], with “O+”. Consider `CN(CCO)c1nc(Oc2ccc3c(c2)COB3O)ccc1C#N` [6-(1-Hydroxy-1,3-dihydro-benzo[c][1,2]oxaborol-5-yloxy)-2-[(2-hydroxy-ethyl)-methyl-amino]-nicotinonitrile], for which, in test [1], the “schistosomula phenotype, 24 h” value is reported as “O−” and the “schistosomula phenotype, day 6” value was “R O”. Further, the “schistosomula phenotype, day 3” value in test [1] (day 3) is “O−”. On to `CC(C)Oc1nc(Oc2ccc3c(c2)COB3O)ccc1C#N` [6-(1-Hydroxy-1,3-dihydro-benzo[c][1,2]oxaborol-5-yloxy)-2-isopropoxy-nicotinonitrile], for which the “schistosomula phenotype, 24 h” value in test [1] is recorded as “O+”. Take `CCOC(=O)c1cnc(Oc2ccc3c(c2)COB3O)c(Cl)c1` [Ethyl 5-chloro-6-(1-hydroxy-1,3-dihydrobenzo[c][1,2]oxaborol-5-yloxy)nicotinate]: the “schistosomula phenotype, 24 h” value in test [1] is “O++”.

Regarding `COc1ccc(C2CNC(=O)C2)cc1OC1CCCC1` (stereo not drawn) [Rolipram], the entries for the “% Inhibition of TNFa Blood Levels” value in the test on TNF-α (Oral Dose 10 mg/kg) and in the test on TNF-α (Oral Dose 30 mg/kg) were 8.6% and 62.7%, respectively.

Take `COCCNc1nc(Oc2ccc3c(c2)COB3O)ccc1C#N` [6-(1-Hydroxy-1,3-dihydro-benzo[c][1,2]oxaborol-5-yloxy)-2-(2-methoxy-ethylamino)-nicotinonitrile]: in test [1], the “schistosomula phenotype, 24 h” value is reported as “O−”.

For `CCOc1nc(Oc2ccc3c(c2)COB3O)ccc1C#N` [2-Ethoxy-6-(1-hydroxy-1,3-dihydro-benzo[c][1,2]oxaborol-5-yloxy)-nicotinonitrile], in test [1], the “schistosomula phenotype, 24 h” value is given as “O++”. With `CC(C)OC(=O)c1ccc(Oc2ccc3c(c2)COB3O)nc1` [Isopropyl 6-(1-hydroxy-1,3-dihydrobenzo[c][1,2]oxaborol-5-yloxy)nicotinate], the “schistosomula phenotype, 24 h” value in test [1] is reported as “O+”. Consider `N#Cc1ccc(Oc2ccc3c(c2)COB3O)c(OCC2CC2)c1` [3-(Cyclopropylmethoxy)-4-(1-hydroxy-1,3-dihydrobenzo[c][1,2]oxaborol-5-yloxy)benzonitrile], for which, in test [1], the “schistosomula phenotype, 24 h” value is on record as “O+” and the “schistosomula phenotype, day 6” value was “partial D”.
